This passage reports IC50 results from BindingDB's records for doi:10.1111/cbdd.12863 (Guangzhou Institutes of Biomedicine and Health, Chinese …, 2017).

For assay [1], the target named is T1, Discoidin domain-containing receptor 2 (Homo sapiens, UniProt Q16832).
T1 sequence (Q16832 whole entry): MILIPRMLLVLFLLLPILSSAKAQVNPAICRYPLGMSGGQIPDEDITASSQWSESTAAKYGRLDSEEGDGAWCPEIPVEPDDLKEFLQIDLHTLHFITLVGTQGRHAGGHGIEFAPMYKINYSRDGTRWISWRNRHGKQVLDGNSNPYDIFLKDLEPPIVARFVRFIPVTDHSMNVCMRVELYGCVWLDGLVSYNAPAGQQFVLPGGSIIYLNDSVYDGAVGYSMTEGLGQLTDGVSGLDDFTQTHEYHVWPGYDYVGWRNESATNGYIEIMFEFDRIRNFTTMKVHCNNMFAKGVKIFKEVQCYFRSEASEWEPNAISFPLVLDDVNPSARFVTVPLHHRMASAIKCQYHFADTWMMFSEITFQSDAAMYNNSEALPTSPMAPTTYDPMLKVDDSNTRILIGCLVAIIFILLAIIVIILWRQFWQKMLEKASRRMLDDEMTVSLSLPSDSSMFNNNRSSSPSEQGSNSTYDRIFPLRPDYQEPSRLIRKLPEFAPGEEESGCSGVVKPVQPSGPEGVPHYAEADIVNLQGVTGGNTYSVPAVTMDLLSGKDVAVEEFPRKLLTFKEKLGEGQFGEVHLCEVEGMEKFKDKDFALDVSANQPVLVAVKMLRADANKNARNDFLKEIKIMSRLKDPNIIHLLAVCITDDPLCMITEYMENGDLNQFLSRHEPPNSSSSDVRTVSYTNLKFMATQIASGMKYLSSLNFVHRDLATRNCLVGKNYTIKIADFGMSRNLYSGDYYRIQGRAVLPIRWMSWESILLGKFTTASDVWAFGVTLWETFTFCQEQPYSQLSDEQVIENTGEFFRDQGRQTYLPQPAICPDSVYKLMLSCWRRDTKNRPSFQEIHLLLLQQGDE
Nature of the assay: LanthaScreen Eu Kinase Activity Assay. The note with it: pH 7.5; 25 °C. As to the method: (§1) The effects of compounds on the kinases DDR1 and DDR2 were assessed by using a LanthaScreen Eu kinase activity assay technology (Invitrogen, Carlsbad, CA, USA). […] Reaction buffer for the kinase reaction consists of 50 mm HEPES pH 7.5, 0.01% BRIJ-35, 10 mm MgCl2, and 1 mm EGTA. The concentration of fluorescein-polyGAT substrate (Invitrogen) in the assay was […] reactions were initiated with the addition of […] in the presence of serial dilutions of compounds. The reactions were allowed to proceed for 1 hour at room temperature before a 10 μL preparation of EDTA (20 mm) and Eu-labeled antibody (4 nm) in TR-FRET dilution buffer was added. The final concentration of antibody in the assay well was 2 nm, and the final concentration of EDTA was 10 mm.
In general terms: TR-FRET usually uses a lanthanide donor and a delayed reading to cut background.

Assay [2] addresses Epithelial discoidin domain-containing receptor 1 (Homo sapiens, UniProt Q08345). Nature of the assay: LanthaScreen Eu Kinase Activity Assay. As to conditions: pH 7.5; 25 °C. As to the method: as §1

Sequence of Epithelial discoidin domain-containing receptor 1 (Q08345 whole entry, the tested form may be a part): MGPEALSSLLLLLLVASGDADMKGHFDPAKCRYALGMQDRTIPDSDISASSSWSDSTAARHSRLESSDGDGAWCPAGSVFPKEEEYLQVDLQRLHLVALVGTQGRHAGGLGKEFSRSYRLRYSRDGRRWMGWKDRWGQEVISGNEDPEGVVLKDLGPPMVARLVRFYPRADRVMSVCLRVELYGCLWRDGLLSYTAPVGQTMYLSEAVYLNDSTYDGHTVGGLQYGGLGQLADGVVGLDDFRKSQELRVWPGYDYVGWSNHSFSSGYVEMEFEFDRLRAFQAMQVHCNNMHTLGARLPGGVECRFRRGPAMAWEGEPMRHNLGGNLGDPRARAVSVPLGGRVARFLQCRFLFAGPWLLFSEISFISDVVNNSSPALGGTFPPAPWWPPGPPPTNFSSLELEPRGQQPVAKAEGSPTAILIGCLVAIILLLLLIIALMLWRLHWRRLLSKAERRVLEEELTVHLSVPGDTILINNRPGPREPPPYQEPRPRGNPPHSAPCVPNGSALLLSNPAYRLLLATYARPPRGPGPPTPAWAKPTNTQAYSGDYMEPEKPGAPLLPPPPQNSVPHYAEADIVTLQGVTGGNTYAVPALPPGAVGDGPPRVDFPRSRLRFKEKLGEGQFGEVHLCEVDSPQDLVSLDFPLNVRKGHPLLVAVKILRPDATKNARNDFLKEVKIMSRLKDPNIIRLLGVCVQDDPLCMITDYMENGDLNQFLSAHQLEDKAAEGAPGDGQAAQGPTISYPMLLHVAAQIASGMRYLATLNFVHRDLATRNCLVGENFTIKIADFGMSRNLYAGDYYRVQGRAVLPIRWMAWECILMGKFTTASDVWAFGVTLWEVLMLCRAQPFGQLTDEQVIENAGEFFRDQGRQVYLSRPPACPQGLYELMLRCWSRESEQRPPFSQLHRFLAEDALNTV

A word on the IC50: it is the midpoint of a concentration-inhibition curve. On to `C=CC(=O)N1CCN(c2cc(Nc3ncc(C(=O)Nc4c(C)cccc4Cl)s3)nc(C)n2)CC1` [2-((6-(4-Acryloylpiperazin-1-yl)-2-methylpyrimidin-4-yl)amino)-N-(2-chloro-6-methylphenyl)-thiazole-5-carboxamide (3l)], for which the figures for the IC50 in assay [1] and in assay [2] were 6.29 nM and 4.54 nM, respectively.
Taken in the same sequence, the figures for `C=CC(=O)N1CCC(Nc2cc(Nc3ncc(C(=O)Nc4c(C)cccc4Cl)s3)nc(C)n2)C1` (stereo not given) [2-((6-((1-Acryloylpyrrolidin-3-yl)amino)-2-methylpyrimidin-4-yl)amino)-N-(2-chloro-6-methylphenyl)thiazole-5-carboxamide (5k)] were 34.4 nM and 7.31 nM.
The like results for `Cc1nc(Nc2ncc(C(=O)Nc3c(C)cccc3Cl)s2)cc(N2CCN(C(=O)OCCN(C)C)CC2)n1` [2-(Dimethylamino)ethyl 4-(6-((5-((2-chloro-6-methylphenyl)carbamoyl)thiazol-2-yl)amino)-2-methylpyrimidin-4-yl)-piperazine-1-carboxylate (3k)] were, in that order, 7.89 nM and 2.56 nM.
As to `Cc1nc(Nc2ncc(C(=O)Nc3c(C)cccc3Cl)s2)cc(N2CCN(C(=O)OCCCl)CC2)n1` [2-Chloroethyl 4-(6-((5-((2-chloro-6-methylphenyl)carbamoyl)thiazol-2-yl)amino)-2-methylpyrimidin-4-yl)-piperazine-1-carboxylate (3i)], the 50% inhibitory concentration (IC50) in assay [1] was determined as 9 nM; in assay [2], 4.21 nM.
As to `Cc1nc(Nc2ncc(C(=O)Nc3c(C)cccc3Cl)s2)cc(N2CCN(C(=O)OCCN3CCOCC3)CC2)n1` [2-Morpholinoethyl 4-(6-((5-((2-chloro-6-methylphenyl)carbamoyl)thiazol-2-yl)amino)-2-methylpyrimidin-4-yl)-piperazine-1-carboxylate (3j)], the results for the half-inhibitory concentration (IC50) in assay [1] and in assay [2] were 7.04 nM and 2.26 nM, respectively.
The like results for `C/C=C/C(=O)N1CCN(c2cc(Nc3ncc(C(=O)Nc4c(C)cccc4Cl)s3)nc(C)n2)CC1` [(E)-2-((6-(4-(but-2-enoyl)piperazin-1-yl)-2-methylpyrimidin-4-yl)amino)-N-(2-chloro-6-methylphenyl)thiazole-5-carboxamide (3m)] were, in that order, 8.34 nM and 4.25 nM.
The like results for `C=CCOC(=O)N1CCC(c2cc(Nc3ncc(C(=O)Nc4c(C)cccc4Cl)s3)nc(C)n2)C1` (stereo not given) [Allyl 3-(6-((5-((2-chloro-6-methylphenyl)carbamoyl)thiazol-2-yl)amino)-2-methylpyrimidin-4-yl)pyrrolidine-1-carboxylate (5d)] were, in that order, 17 nM and 13.3 nM.
The like results for `C=CCOC(=O)N1CCN(c2cc(Nc3ncc(C(=O)Nc4c(C)cccc4Cl)s3)nc(C)n2)CC1` [Allyl 4-(6-((5-((2-chloro-6-methylphenyl)carbamoyl)thiazol-2-yl)amino)-2-methylpyrimidin-4-yl)-piperazine-1-carboxylate (3d)] were, in that order, 21.6 nM and 6.69 nM.
`Cc1nc(Nc2ncc(C(=O)Nc3c(C)cccc3Cl)s2)cc(C2CCN(C(=O)OCc3ccccc3)C2)n1` (stereo not given) [Benzyl 3-(6-((5-((2-chloro-6-methylphenyl)carbamoyl)thiazol-2-yl)amino)-2-methylpyrimidin-4-yl)pyrrolidine-1-carboxylate (5h)]: the IC50 in assay [1] was found to be 285 nM; in assay [2] it was 22 nM.
The like results for `Cc1nc(Nc2ncc(C(=O)Nc3c(C)cccc3Cl)s2)cc(N2CCN(C(=O)OCc3ccccc3)CC2)n1` [Benzyl 4-(6-((5-((2-chloro-6-methylphenyl)carbamoyl)thiazol-2-yl)amino)-2-methylpyrimidin-4-yl)-piperazine-1-carboxylate (3h)] were, in that order, 133 nM and 22.6 nM.
Taken in the same sequence, the figures for `CCCCOC(=O)N1CCC(c2cc(Nc3ncc(C(=O)Nc4c(C)cccc4Cl)s3)nc(C)n2)C1` (stereo not given) [Butyl 3-(6-((5-((2-chloro-6-methylphenyl)carbamoyl)thiazol-2-yl)amino)-2-methylpyrimidin-4-yl)pyrrolidine-1-carboxylate (5e)] were 123 nM and 15.3 nM.
Regarding `CCCCOC(=O)N1CCN(c2cc(Nc3ncc(C(=O)Nc4c(C)cccc4Cl)s3)nc(C)n2)CC1` [Butyl 4-(6-((5-((2-chloro-6-methylphenyl)carbamoyl)thiazol-2-yl)amino)-2-methylpyrimidin-4-yl)-piperazine-1-carboxylate (3e)], the 50% inhibitory concentration (IC50) in assay [1] came out at 6.16 nM; in assay [2], 3.2 nM.
Taken in the same sequence, the figures for `CCOC(=O)N1CCC(c2cc(Nc3ncc(C(=O)Nc4c(C)cccc4Cl)s3)nc(C)n2)C1` (stereo not given) [Ethyl 3-(6-((5-((2-chloro-6-methylphenyl)carbamoyl)thiazol-2-yl)amino)-2-methylpyrimidin-4-yl)pyrrolidine-1-carboxylate (5b)] were 22.4 nM and 9.6 nM.
Taken in the same sequence, the figures for `CCOC(=O)N1CCN(c2cc(Nc3ncc(C(=O)Nc4c(C)cccc4Cl)s3)nc(C)n2)CC1` [Ethyl 4-(6-((5-((2-chloro-6-methylphenyl)carbamoyl)thiazol-2-yl)amino)-2-methylpyrimidin-4-yl)-piperazine-1-carboxylate (3b)] were 11.4 nM and 3.15 nM.
Turning to `Cc1nc(Nc2ncc(C(=O)Nc3c(C)cccc3Cl)s2)cc(C2CCN(C(=O)OCC(C)C)C2)n1` (stereo not given) [Isobutyl 3-(6-((5-((2-chloro-6-methylphenyl)carbamoyl)thiazol-2-yl)amino)-2-methylpyrimidin-4-yl)pyrrolidine-1-carboxylate (5f)], the figures for the IC50 in assay [1] and in assay [2] were 85.4 nM and 12.1 nM, respectively.
Taken in the same sequence, the figures for `Cc1nc(Nc2ncc(C(=O)Nc3c(C)cccc3Cl)s2)cc(N2CCN(C(=O)OCC(C)C)CC2)n1` [Isobutyl 4-(6-((5-((2-chloro-6-methylphenyl)carbamoyl)thiazol-2-yl)amino)-2-methylpyrimidin-4-yl)-piperazine-1-carboxylate (3f)] were 34.6 nM and 6.75 nM.
The like results for `Cc1nc(Nc2ncc(C(=O)Nc3c(C)cccc3Cl)s2)cc(C2CCN(C(=O)OC(C)C)C2)n1` (stereo not given) [Isopropyl 3-(6-((5-((2-chloro-6-methylphenyl)carbamoyl)thiazol-2-yl)amino)-2-methylpyrimidin-4-yl)pyrrolidine-1-carboxylate (5c)] were, in that order, 72.1 nM and 9.14 nM.
The like results for `Cc1nc(Nc2ncc(C(=O)Nc3c(C)cccc3Cl)s2)cc(N2CCN(C(=O)OC(C)C)CC2)n1` [Isopropyl 4-(6-((5-((2-chloro-6-methylphenyl)carbamoyl)thiazol-2-yl)amino)-2-methylpyrimidin-4-yl)-piperazine-1-carboxylate (3c)] were, in that order, 14 nM and 5.99 nM.
As for `COC(=O)N1CCC(c2cc(Nc3ncc(C(=O)Nc4c(C)cccc4Cl)s3)nc(C)n2)C1` (stereo not given) [Methyl 3-(6-((5-((2-chloro-6-methylphenyl)carbamoyl)thiazol-2-yl)amino)-2-methylpyrimidin-4-yl)pyrrolidine-1-carboxylate (5a)], the half-maximal inhibitory concentration (IC50) in assay [1] amounted to 32.9 nM; in assay [2], 5.23 nM.
The like results for `COC(=O)N1CCN(c2cc(Nc3ncc(C(=O)Nc4c(C)cccc4Cl)s3)nc(C)n2)CC1` [Methyl 4-(6-((5-((2-chloro-6-methylphenyl)carbamoyl)thiazol-2-yl)amino)-2-methylpyrimidin-4-yl)-piperazine-1-carboxylate (3a)] were, in that order, 6.76 nM and 4.32 nM.
